Key:
[1] = Permeability across apical to basal side in human Caco-2 cells; assay type: ADME, cell-based
[2] = Stability in mouse liver microsome; assay type: ADME; details: microsomes

permeability [1]: Permeable | Stability [2]: Stable
SMILES: O=S(=O)(Nc1ccc2ccccc2n1)c1ccccc1

Reference: ChEMBL document CHEMBL6134840 (J Med Chem, 2025)
